According to US9409952B2, “Peptide-compound cyclization method” (Chugai Seiyaku Kabushiki Kaisha, priority 2011, dated 2016):
Like-named read-outs stand apart in the source and are kept apart here. Starred links: 1 amine or outer side, 2 acyl side, 3 side chain; linkers in the order of their positions; H or OH if unused. Positions of bridges follow the written chain, without caps; N, C: chain ends. Non-standard residues stand in square brackets, D forms with d. Residues, ends and D or L forms follow the SMILES beside them. *: point of attachment. NMeF = CN[C@@H](Cc1ccccc1)C(=O)O; NMeGABA = CN(CCCC(=O)[*:2])[*:1]; NMeI = CC[C@H](C)[C@H](NC)C(=O)O; NMeβAla = CN(CCC(=O)[*:2])[*:1]; NMeL = CN[C@@H](CC(C)C)C(=O)O; NMeV = CN[C@H](C(=O)O)C(C)C; NMeA = CN[C@@H](C)C(=O)O; Piperidide = C1CCN(*)CC1; dNMeA = CN[C@H](C)C(=O)O; β3hA = C[C@H](N)CC(=O)O; Sar = CNCC(=O)O; tBu = CC(C)(C)*

What was measured:
[1] = PAMPA (parallel artificial membrane permeability assay); assay type: in vitro ADME; conditions: PAMPA
Outline: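 Artificial membrane was 10% (w/v) egg lecithin plus 0.5% (w/v) cholesterol in dodecane on a PVDF filter. A 10 mM DMSO stock was added at 0.5% (v/v) to donor buffer (50 mM MOPSO, pH 6.5, 5.0% glycocholic acid). After 18 h at 37 °C, LC/MS or LC/UV gave donor and acceptor levels for Pe.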

[2] = Metabolic stability in human hepatic microsome; assay type: in vitro ADME; conditions: microsomes
[3] = membrane permeation rate (Pe), 50 mM MOPSO buffer pH 6.5 with 5.0% glycocholic acid, 37° C., 18 hours, read-out: iPAMPA Pe
[4] = pH 7.4, human hepatic microsome, NADPH(+), read-out: CL NADPH(+)

Row | SMILES | Papp at 18 hours, 50 µM [1, 3] [×10⁻⁶ cm/s] | microsomal CLint at 1 uM [2, 4] [µL/min/mg] | Papp at 18 hours, 50 µM ([1]; pH 6.5) [×10⁻⁶ cm/s] | microsomal CLint at 1 uM ([2]; human, pH 7.4, CL NADPH(+)) [µL/min/mg]
1 | CC[C@H](C)[C@@H]1NC(=O)[C@H](Cc2ccccc2)NC(=O)[C@H](CC(C)C)NC(=O)CNC(=O)[C@H]([C@@H](C)O)NC(=O)[C@H](Cc2ccccc2)NC(=O)[C@H](C)N(C)C(=O)C[C@@H](C(=O)N2CCCCC2)NC(=O)[C@H](Cc2ccccc2)NC(=O)[C@H](CC(C)C)N(C)C1=O [DP-436] ([NMeA]FTGLFI[NMeL]FD-Piperidide; lactam N-10) | 45 | 142 | – | –
2 | CC[C@H](C)[C@@H]1NC(=O)[C@H](C)N(C)C(=O)CCN(C)C(=O)C[C@@H](C(=O)N2CCCCC2)NC(=O)[C@H](CC(C)C)N(C)C(=O)[C@H](CC(C)C)N(C)C(=O)[C@H](C)N(C)C(=O)[C@H]([C@@H](C)O)NC(=O)[C@H](Cc2ccccc2)N(C)C(=O)[C@H](Cc2ccccc2)N(C)C1=O [DP-140] ([NMeβAla][NMeA]I[NMeF][NMeF]T[NMeA][NMeL][NMeL]D-Piperidide; lactam N-10) | 61 | 96 | – | –
3 | CNC(=O)CC[C@@H]1NC(=O)[C@H](CC(C)C)N(C)C(=O)[C@H](C)N(C)C(=O)[C@H](CC(C)C)N(C)C(=O)[C@H](Cc2ccccc2)NC(=O)[C@H](Cc2ccccc2)N(C)C(=O)[C@H](CC(C)C)NC(=O)[C@H](CC(C)C)N(C)C(=O)[C@H](C)N(C)C(=O)[C@@H](C(C)C)NC(=O)C[C@@H](C(=O)N2CCCCC2)NC1=O [DP-626] ([dV][NMeA][NMeL]L[NMeF]F[NMeL][NMeA][NMeL]E(NHMe)D-Piperidide; lactam N-11) | 36 | 28 | – | –
4 | CC[C@H](C)[C@@H]1NC(=O)[C@H](C)N(C)C(=O)[C@H]([C@@H](C)O)NC(=O)[C@H](Cc2ccccc2)N(C)C(=O)[C@H](CC(C)C)N(C)C(=O)CCCN(C)C(=O)C[C@@H](C(=O)N(C)[C@@H](Cc2ccccc2)C(=O)N[C@@H](C)C(=O)N2CCCCC2)NC(=O)[C@H](C(C)C)N(C)C(=O)[C@H](CC(C)C)N(C)C1=O [DP-384] ([NMeGABA][NMeL][NMeF]T[NMeA]I[NMeL][NMeV]D[NMeF]A-Piperidide; lactam N-9) | 26 | 214 | – | –
5 | CC[C@H](C)[C@@H]1NC(=O)[C@H](Cc2ccccc2)N(C)C(=O)[C@H]([C@@H](C)O)NC(=O)[C@@H](C)NC(=O)C[C@@H](C(=O)N(C)[C@@H](Cc2ccccc2)C(=O)N[C@@H](C)C(=O)N2CCCCC2)NC(=O)[C@H](CC(C)C)N(C)C(=O)[C@H](CC(C)C)N(C)C(=O)[C@H](Cc2ccccc2)N(C)C(=O)[C@H](CC(C)C)N(C)C(=O)[C@H](C)N(C)C1=O [DP-189] ([dA]T[NMeF]I[NMeA][NMeL][NMeF][NMeL][NMeL]D[NMeF]A-Piperidide; lactam N-10) | 1.4 | 3 | – | –
6 | CC(C)C[C@@H]1NC(=O)[C@H](Cc2ccccc2)N(C)C(=O)[C@H](C)N(C)C(=O)C[C@H](C)NC(=O)[C@H]([C@@H](C)O)NC(=O)[C@H](CC(C)C)N(C)C(=O)[C@H](Cc2ccccc2)NC(=O)[C@H](CC(C)C)N(C)C(=O)[C@H](CC(C)C)N(C)C1=O [DP-791] (cyclo(F[NMeL]T[β3hA][NMeA][NMeF]L[NMeL][NMeL])) | 41 | 794 | – | –
7 | CC(C)C[C@H]1C(=O)N[C@@H](C)CC(=O)N(C)[C@H](C)C(=O)N(C)[C@@H](Cc2ccccc2)C(=O)N(C)[C@@H](CC(C)C)C(=O)N[C@@H]([C@@H](C)O)C(=O)N(C)CC(=O)N[C@@H](COC(C)(C)C)C(=O)N1C [DP-797] (cyclo([NMeF][NMeL]T[Sar]S(tBu)[NMeL][β3hA][dNMeA])) | 26 | 91 | – | –
8 | CC(C)C[C@H]1C(=O)N(C)[C@@H](C)C(=O)N(C)[C@@H](Cc2ccccc2)C(=O)N[C@@H]([C@@H](C)O)C(=O)N(C)[C@@H](C)C(=O)N(C)[C@@H](Cc2ccccc2)C(=O)N(C)[C@@H](C)C(=O)N[C@H](C(=O)N(C)[C@@H](Cc2ccccc2)C(=O)N[C@@H](C)C(=O)N2CCCCC2)CC(=O)N(C)[C@@H](C)C(=O)N[C@@H](C)C(=O)N(C)[C@@H](C)C(=O)N1C [DP-445] ([NMeA]A[NMeA][NMeL][NMeA][NMeF]T[NMeA][NMeF][NMeA]D[NMeF]A-Piperidide; lactam N-11) | 11 | 14 | – | –
9 | CC[C@H](C)[C@H]1C(=O)N(C)[C@@H](CC(C)C)C(=O)N[C@H](C(=O)N2CCCCC2)CC(=O)N(C)[C@@H](C)C(=O)N(C)[C@@H](CC(C)C)C(=O)N[C@@H](CC(C)C)C(=O)N(C)[C@@H](Cc2ccccc2)C(=O)N[C@@H](COC(C)(C)C)C(=O)N(C)[C@@H](Cc2ccccc2)C(=O)N[C@@H]([C@@H](C)O)C(=O)N(C)[C@@H](C)C(=O)N1C [DP-100] ([NMeA][NMeL]L[NMeF]S(tBu)[NMeF]T[NMeA][NMeI][NMeL]D-Piperidide; lactam N-11) | – | – | 1.7 | 80
